Drawing on patent US20150344457A1, “METHODS OF INHIBITING PRMT5” (EPIZYME, INC., priority 2012, published 2015), this text covers EC50 for 33 compounds.

Bounds are passed on as bounds.

The subject of test [1] is Z-138 cells. The test is described as follows: Z-138 Proliferation Assay (Cell Titer Glo, 5 days). The class given is cell-based. To be noted: Homo sapiens, 120 h, Table A-2, 5 days, top concentration 20 μM. The method, boiled down:
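Exponentially growing Z-138 cells (10,000 cells/ml) in RPMI 1640 with 10% FBS are exposed to nine-point 3-fold dilutions (final top concentration 20 μM, 0.2% DMSO) for 5 days at 37° C. Viability is measured as ATP by CellTiter-Glo luminescence. The 50% inhibitory concentration comes from a 4-parameter fit.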

Test [2] has as its system Z-138 cells. Nature of the test: Z-138 Methylation Assay (In Cell Western for symmetric di-methyl arginine and DNA content). Type of test: cell-based. To be noted: Homo sapiens, Table A-2, 96 hours, symmetric di-methyl arginine, read-out: ICW EC50. In short, it runs like this:
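Symmetric di-methyl arginine signal (800 nm) ratioed to DNA content (700 nm) by In Cell Western after four days of compound treatment of Z-138 suspension cells seeded at 50,000 cells/mL. Percent inhibition set between DMSO and 3 μM reference wells; IC50 curves from triplicates.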

One may read the EC50 as the midpoint of the concentration-response curve. For the compound `CN1CCC(n2ncc3cc(OCC(=O)NCC(O)CN4CCc5ccccc5C4)ccc32)C1` (stereo not drawn) [Compound A96], the EC50 in test [1] fell in the range of 10000 to 50000 nM; in test [2], 101 to 1000 nM.
Taken in the same sequence, the figures for `COc1ccc2cccc(OCC(=O)NC[C@H](O)CN3CCc4ccccc4C3)c2n1` [Compound A97] were 1000 to 10000 nM and 101 to 1000 nM.
Regarding `COc1ccc2cccc(OCC(=O)NC[C@@H](O)CN3CCc4ccccc4C3)c2n1` [Compound A98], the EC50 was 1000 to 10000 nM in test [1] and less than 100 nM in test [2].
On to `CN1CCc2c(cccc2OCC(=O)NCC(O)CN2CCc3ccccc3C2)C1` (stereo not drawn) [Compound A99], for which the EC50 lay in the range of 1000 to 10000 nM in test [1] and 101 to 1000 nM in test [2].
For the compound `O=C(COc1cccc2c1OCCO2)NCC(O)CN1CCc2ccccc2C1` (stereo not drawn) [Compound A100], the EC50 in test [1] was 1000 to 10000 nM; in test [2], less than 100 nM.
Taken in the same sequence, the figures for `CC(=O)N1CCc2c(cccc2OCC(=O)NCC(O)CN2CCc3ccccc3C2)C1` (stereo not drawn) [Compound A101] were 1000 to 10000 nM and less than 100 nM.
On to `CS(=O)(=O)N1CCc2c(cccc2OCC(=O)NCC(O)CN2CCc3ccccc3C2)C1` (stereo not drawn) [Compound A102], for which the EC50 in test [1] is 1000 to 10000 nM; in test [2], less than 100 nM.
`O=C(COc1ccccc1C1CCNCC1)NCC(O)CN1CCc2ccccc2C1` (stereo not drawn) [Compound A103]: the 50% effective concentration (EC50) is more than 20000 nM in test [1] and 101 to 1000 nM in test [2].
On the same counts, the results for `CN(C)c1ccc2cccc(OCC(=O)NC[C@H](O)CN3CCc4ccccc4C3)c2n1` [Compound A104] are more than 20000 nM and 1000 to 10000 nM.
On the same counts, the results for `CN(C)c1ccc2cccc(OCC(=O)NC[C@@H](O)CN3CCc4ccccc4C3)c2n1` [Compound A105] are 1000 to 10000 nM and 101 to 1000 nM.
Turning to `CS(=O)(=O)N1CCN(c2ccccc2OCC(=O)NCC(O)CN2CCc3ccccc3C2)CC1` (stereo not drawn) [Compound A106], the concentration for a half-maximal effect (EC50) in test [1] is more than 20000 nM; in test [2], 101 to 1000 nM.
On the same counts, the results for `O=C(COc1ccccc1S(=O)(=O)N1CCNCC1)NCC(O)CN1CCc2ccccc2C1` (stereo not drawn) [Compound A107] are 1000 to 10000 nM and less than 100 nM.
Take `CN1CCN(S(=O)(=O)c2ccccc2OCC(=O)NCC(O)CN2CCc3ccccc3C2)CC1` (stereo not drawn) [Compound A108]: the figures for the EC50 in test [1] and in test [2] were 10000 to 50000 nM and 101 to 1000 nM, respectively.
For `CN(C)S(=O)(=O)c1ccccc1OCC(=O)NCC(O)CN1CCc2ccccc2C1` (stereo not drawn) [Compound A109], the EC50 in test [1] is 101 to 1000 nM; in test [2] it was less than 100 nM.
On the same counts, the results for `O=C(COc1ccccc1S(=O)(=O)N1CCCC1)NCC(O)CN1CCc2ccccc2C1` (stereo not drawn) [Compound A110] are 101 to 1000 nM and less than 100 nM.
With `O=C(COc1ccccc1S(=O)(=O)N1CCC(O)C1)NCC(O)CN1CCc2ccccc2C1` (stereo not drawn) [Compound A111], the EC50 was 101 to 1000 nM in test [1] and less than 100 nM in test [2].
On the same counts, the results for `CNC(=O)c1ccccc1OCC(=O)NCC(O)CN1CCc2ccccc2C1` (stereo not drawn) [Compound A112] are more than 20000 nM and 101 to 1000 nM.
As for `CN(C)C(=O)c1ccccc1OCC(=O)NCC(O)CN1CCc2ccccc2C1` (stereo not drawn) [Compound A113], the EC50 in test [1] fell in the range of 10000 to 50000 nM; in test [2], 101 to 1000 nM.
On the same counts, the results for `CC(Oc1ccccc1S(C)(=O)=O)C(=O)NCC(O)CN1CCc2ccccc2C1` (stereo not drawn) [Compound A114] are more than 20000 nM and 1000 to 10000 nM.
Taken in the same sequence, the figures for `O=C(COc1ccccc1C1CCNC1)NCC(O)CN1CCc2ccccc2C1` (stereo not drawn) [Compound A116] were more than 20000 nM and 1000 to 10000 nM.
On the same counts, the results for `O=C(COc1ccccc1C1CCCNC1)NCC(O)CN1CCc2ccccc2C1` (stereo not drawn) [Compound A117] are 1000 to 10000 nM and 101 to 1000 nM.
On to `Cn1cc2c(OCC(=O)NCC(O)CN3CCc4ccccc4C3)cccc2n1` (stereo not drawn) [Compound A118], for which the EC50 in test [1] was more than 20000 nM; in test [2], 1000 to 10000 nM.
Taken in the same sequence, the figures for `O=C(COc1cccc2c1CNCC2)NCC(O)CN1CCc2ccccc2C1` (stereo not drawn) [Compound A119] were 10000 to 50000 nM and 101 to 1000 nM.
Taken in the same sequence, the figures for `CN1CCc2cccc(OCC(=O)NCC(O)CN3CCc4ccccc4C3)c2C1` (stereo not drawn) [Compound A120] were more than 20000 nM and 1000 to 10000 nM.
On the same counts, the results for `CC(=O)N1CCN(S(=O)(=O)c2ccccc2OCC(=O)NCC(O)CN2CCc3ccccc3C2)CC1` (stereo not drawn) [Compound A122] are more than 20000 nM and 1000 to 10000 nM.
With `CNS(=O)(=O)c1ccccc1OCC(=O)NCC(O)CN1CCc2ccccc2C1` (stereo not drawn) [Compound A123], the EC50 in test [1] lay in the range of 1000 to 10000 nM; in test [2] it was 101 to 1000 nM.
On the same counts, the results for `O=C(COc1cccc2c1OCC(=O)N2)NCC(O)CN1CCc2ccccc2C1` (stereo not drawn) [Compound A124] are more than 20000 nM and 1000 to 10000 nM.
Regarding `CN(C)c1ncccc1OCC(=O)NCC(O)CN1CCc2ccccc2C1` (stereo not drawn) [Compound A127], the EC50 in test [1] is more than 20000 nM; in test [2], 1000 to 10000 nM.
Taken in the same sequence, the figures for `O=C(COc1cccc2ncc(=O)[nH]c12)NCC(O)CN1CCc2ccccc2C1` (stereo not drawn) [Compound A129] were more than 20000 nM and 1000 to 10000 nM.
For the compound `CN1CCCC(c2ccccc2OCC(=O)NCC(O)CN2CCc3ccccc3C2)C1` (stereo not drawn) [Compound A130], the EC50 in test [1] lay in the range of 1000 to 10000 nM; in test [2], 101 to 1000 nM.
With `CN1CCC(c2ccccc2OCC(=O)NCC(O)CN2CCc3ccccc3C2)CC1` (stereo not drawn) [Compound A134], the EC50 was more than 20000 nM in test [1] and 1000 to 10000 nM in test [2].
Taken in the same sequence, the figures for `O=C(COc1ccccc1-c1ncc[nH]1)NCC(O)CN1CCc2ccccc2C1` (stereo not drawn) [Compound A137] were more than 20000 nM and 1000 to 10000 nM.
Taken in the same sequence, the figures for `CN(c1cccc(OCC(=O)NCC(O)CN2CCc3ccccc3C2)c1)S(C)(=O)=O` (stereo not drawn) [Compound A142] were more than 20000 nM and 101 to 1000 nM.
